These are literature values, as cited in patent US5358942A, “Inhibition of protein kinase C with Cyclic phosphonate compounds” (Louisiana State University, priority 1993, dated 1994).

The series relates to carnitine palmitoyltransferase (CPT).

In the case of `CCCCCCCCCCCCCCC[C@@]1(O)C[N+](C)(C)C[C@H](CC(=O)O)O1.[Br-]` [Hemipalmitoyl carnitinium (HPC), Hemipalmitoyl carnitinium], the “inhibition of carnitine palmitoyltransferase (CPT)” value is “potently inhibits”.
